Consider twelve molecules from ChEMBL document CHEMBL1129001, “From indomethacin to a selective COX-2 inhibitor: Development of indolalkanoic acids as potent and selective cyclooxygenase-2 inhibitors” (Bioorg Med Chem Lett, 1996).

One assay concerns Rattus norvegicus. The assay is described as follows: Compound was evaluated for inhibition of paw edema in rat. In kind it is functional.
The molecule `COc1ccc2c(c1)c(CCC(=O)O)c(C)n2Cc1ccc(Br)cc1` came in with an ED30 of more than 3 mg/kg.

The molecule `COc1ccc2c(c1)c(CC(=O)O)c(C)n2Cc1ccc(Br)cc1` displayed an ED30 of 0.6 mg/kg.

In turn, `COc1ccc2c(c1)c(CCCC(=O)O)c(C)n2Cc1ccc(Br)cc1` gave an ED30 of 1.2 mg/kg.

On to `COc1ccc2c(c1)c(CC(=O)O)c(C)n2C(=O)c1c(Cl)cc(Cl)cc1Cl`, for which the ED30 came out at 1.3 mg/kg.

`COc1ccc2c(c1)c(CC(=O)O)c(C)n2C(=O)c1ccc(Cl)cc1` [INDOMETHACIN] registered an ED30 of 0.9 mg/kg.

In turn, `COc1ccc2c(c1)c(CC1(CC(=O)O)CC1)c(C)n2Cc1ccc(Br)cc1` displayed an ED30 of 0.5 mg/kg.

The molecule `COc1ccc2c(c1)c(CCC(C)C(=O)O)c(C)n2Cc1ccc(Br)cc1` (centres undefined) displayed an ED30 of 1.6 mg/kg.

Molecule `COc1ccc2c(c1)c(C(C)CC(=O)O)c(C)n2Cc1ccc(Br)cc1` (centres undefined) showed an ED30 of 0.6 mg/kg.

`COc1ccc2c(c1)c(C(C)C(=O)O)c(C)n2Cc1ccc(Cl)cc1` (centres undefined): the ED30 is 3 mg/kg.

Consider `COc1ccc2c(c1)c(CC(C)CC(=O)O)c(C)n2Cc1ccc(Br)cc1` (centres undefined), for which the ED30 came out at 0.4 mg/kg.

As to `COc1ccc2c(c1)c([C@@H](C)[C@@H](C)C(=O)O)c(C)n2Cc1ccc(Br)cc1`, the ED30 stood at 0.6 mg/kg.

The molecule `COc1ccc2c(c1)c(CC(C)C(=O)O)c(C)n2Cc1ccc(Br)cc1` (centres undefined) yielded an ED30 of 2.6 mg/kg.

The target of a further assay is T1, Prostaglandin G/H synthase 2 (Rattus norvegicus, UniProt P35355).
T1 sequence (P35355 whole entry): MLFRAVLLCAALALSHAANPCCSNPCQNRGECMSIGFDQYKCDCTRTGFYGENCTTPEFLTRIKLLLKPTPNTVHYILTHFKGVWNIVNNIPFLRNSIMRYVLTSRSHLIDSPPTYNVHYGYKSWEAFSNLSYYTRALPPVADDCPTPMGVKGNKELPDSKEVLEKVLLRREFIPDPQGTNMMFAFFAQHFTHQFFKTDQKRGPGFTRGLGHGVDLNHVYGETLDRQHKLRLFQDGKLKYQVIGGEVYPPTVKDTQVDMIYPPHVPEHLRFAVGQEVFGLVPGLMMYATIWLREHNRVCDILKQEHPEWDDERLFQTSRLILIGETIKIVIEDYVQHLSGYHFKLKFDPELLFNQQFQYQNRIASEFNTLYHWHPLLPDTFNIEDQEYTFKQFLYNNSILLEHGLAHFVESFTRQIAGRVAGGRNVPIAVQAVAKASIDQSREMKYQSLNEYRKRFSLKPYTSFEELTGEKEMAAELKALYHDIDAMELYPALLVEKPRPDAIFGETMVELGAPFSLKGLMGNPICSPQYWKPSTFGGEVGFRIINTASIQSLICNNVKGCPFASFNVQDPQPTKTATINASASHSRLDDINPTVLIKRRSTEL
Description: Inhibition of Prostaglandin G/H synthase 2
Turning to `COc1ccc2c(c1)c(CCC(=O)O)c(C)n2Cc1ccc(Br)cc1`, the IC50 (as a rule, the point on the concentration scale where inhibition reaches its midpoint) was found to be 0.003 µM.

As for `COc1ccc2c(c1)c(CC(=O)O)c(C)n2Cc1ccc(Br)cc1`, the 50% inhibitory concentration (IC50) came to 0.009 µM.

`COc1ccc2c(c1)c(CCCC(=O)O)c(C)n2Cc1ccc(Br)cc1` showed an IC50 of 0.006 µM.

For the molecule `COc1ccc2c(c1)c(CC(=O)O)c(C)n2C(=O)c1c(Cl)cc(Cl)cc1Cl`, the IC50 turned out to be 0.5 µM.

`COc1ccc2c(c1)c(CC1(CC(=O)O)CC1)c(C)n2Cc1ccc(Br)cc1` gave an IC50 of 0.016 µM.

Regarding `COc1ccc2c(c1)c(CCC(C)C(=O)O)c(C)n2Cc1ccc(Br)cc1` (centres undefined), it took 0.004 µM to reach half-maximal inhibition (IC50).

Molecule `COc1ccc2c(c1)c(C(C)CC(=O)O)c(C)n2Cc1ccc(Br)cc1` (centres undefined) displayed an IC50 of 0.004 µM.

In turn, `COc1ccc2c(c1)c(C(C)C(=O)O)c(C)n2Cc1ccc(Cl)cc1` (centres undefined) yielded an IC50 of 0.02 µM.

For the molecule `COc1ccc2c(c1)c(CC(C)CC(=O)O)c(C)n2Cc1ccc(Br)cc1` (centres undefined), half-maximal inhibition (IC50) required 0.002 µM.

On to `COc1ccc2c(c1)c([C@@H](C)[C@@H](C)C(=O)O)c(C)n2Cc1ccc(Br)cc1`, for which 0.06 µM corresponded to half-maximal inhibition (IC50).

Molecule `COc1ccc2c(c1)c(CC(C)C(=O)O)c(C)n2Cc1ccc(Br)cc1` (centres undefined) returned an IC50 of 0.003 µM.

Another assay addresses T2, Prostaglandin G/H synthase 1 (Rattus norvegicus, UniProt Q63921).
T2 sequence (Q63921 whole entry): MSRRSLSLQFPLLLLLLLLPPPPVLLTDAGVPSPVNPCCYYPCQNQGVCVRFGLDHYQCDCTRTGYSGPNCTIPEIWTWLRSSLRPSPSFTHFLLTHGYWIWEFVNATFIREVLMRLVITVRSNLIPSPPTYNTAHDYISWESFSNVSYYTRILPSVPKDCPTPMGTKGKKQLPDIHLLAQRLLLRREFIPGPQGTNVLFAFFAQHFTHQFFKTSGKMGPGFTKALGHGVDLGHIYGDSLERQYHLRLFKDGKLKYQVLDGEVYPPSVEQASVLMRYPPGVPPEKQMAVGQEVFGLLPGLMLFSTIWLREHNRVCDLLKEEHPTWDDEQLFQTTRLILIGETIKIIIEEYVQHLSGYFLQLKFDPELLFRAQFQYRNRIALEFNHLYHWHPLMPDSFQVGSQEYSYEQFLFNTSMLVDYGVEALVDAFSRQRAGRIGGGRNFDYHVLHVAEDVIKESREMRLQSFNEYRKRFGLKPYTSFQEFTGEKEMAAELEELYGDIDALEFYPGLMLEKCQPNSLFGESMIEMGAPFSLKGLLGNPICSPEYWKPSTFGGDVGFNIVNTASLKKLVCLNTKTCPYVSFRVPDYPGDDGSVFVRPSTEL
Description: Inhibition of Prostaglandin G/H synthase 1 using whole cell assay
As to `COc1ccc2c(c1)c(CCC(=O)O)c(C)n2Cc1ccc(Br)cc1`, the IC50 was more than 50 µM.

Take `COc1ccc2c(c1)c(CC(=O)O)c(C)n2Cc1ccc(Br)cc1`: inhibition was half-maximal at 41 µM (IC50).

Regarding `COc1ccc2c(c1)c(CCCC(=O)O)c(C)n2Cc1ccc(Br)cc1`, the IC50 is more than 50 µM.

Turning to `COc1ccc2c(c1)c(CC(=O)O)c(C)n2C(=O)c1c(Cl)cc(Cl)cc1Cl`, the 50% inhibitory concentration (IC50) was more than 100 µM.

As for `COc1ccc2c(c1)c(CC1(CC(=O)O)CC1)c(C)n2Cc1ccc(Br)cc1`, the IC50 is more than 10 µM.

For the molecule `COc1ccc2c(c1)c(CCC(C)C(=O)O)c(C)n2Cc1ccc(Br)cc1` (centres undefined), the IC50 was more than 10 µM.

In turn, `COc1ccc2c(c1)c(C(C)CC(=O)O)c(C)n2Cc1ccc(Br)cc1` (centres undefined) returned an IC50 of more than 50 µM.

In the case of `COc1ccc2c(c1)c(C(C)C(=O)O)c(C)n2Cc1ccc(Cl)cc1` (centres undefined), the IC50 turned out to be 11 µM.

Consider `COc1ccc2c(c1)c(CC(C)CC(=O)O)c(C)n2Cc1ccc(Br)cc1` (centres undefined), for which the IC50 was more than 10 µM.

The molecule `COc1ccc2c(c1)c([C@@H](C)[C@@H](C)C(=O)O)c(C)n2Cc1ccc(Br)cc1` yielded an IC50 of more than 50 µM.

For `COc1ccc2c(c1)c(CC(C)C(=O)O)c(C)n2Cc1ccc(Br)cc1` (centres undefined), the IC50 was more than 50 µM.
